Assay [1] addresses JH2 domain of human Tyk2 (Homo sapiens (Human), UniProt P29597). The assay is described as follows: JH2 Biochemical Assay (TR-FRET probe displacement). In kind it is binding.
Assay [2] has as its target Tyk2 (Homo sapiens (Human), UniProt P29597). Nature of the assay: pSTAT4 Cell Assay (MSD, NK92 cells). In kind it is cell-based.
Setting [3] is: TR-FRET probe displacement, JH2 domain.
The mark [4] stands for this setting: TR-FRET probe displacement, JH2 domain of human Tyk2.
Where [5] appears, read: JH2 domain of human Tyk2, TR-FRET probe displacement.

Where two headings read alike, the source gives them in different places.

Tyk2, sequence (P29597 whole entry, the tested form may be a part): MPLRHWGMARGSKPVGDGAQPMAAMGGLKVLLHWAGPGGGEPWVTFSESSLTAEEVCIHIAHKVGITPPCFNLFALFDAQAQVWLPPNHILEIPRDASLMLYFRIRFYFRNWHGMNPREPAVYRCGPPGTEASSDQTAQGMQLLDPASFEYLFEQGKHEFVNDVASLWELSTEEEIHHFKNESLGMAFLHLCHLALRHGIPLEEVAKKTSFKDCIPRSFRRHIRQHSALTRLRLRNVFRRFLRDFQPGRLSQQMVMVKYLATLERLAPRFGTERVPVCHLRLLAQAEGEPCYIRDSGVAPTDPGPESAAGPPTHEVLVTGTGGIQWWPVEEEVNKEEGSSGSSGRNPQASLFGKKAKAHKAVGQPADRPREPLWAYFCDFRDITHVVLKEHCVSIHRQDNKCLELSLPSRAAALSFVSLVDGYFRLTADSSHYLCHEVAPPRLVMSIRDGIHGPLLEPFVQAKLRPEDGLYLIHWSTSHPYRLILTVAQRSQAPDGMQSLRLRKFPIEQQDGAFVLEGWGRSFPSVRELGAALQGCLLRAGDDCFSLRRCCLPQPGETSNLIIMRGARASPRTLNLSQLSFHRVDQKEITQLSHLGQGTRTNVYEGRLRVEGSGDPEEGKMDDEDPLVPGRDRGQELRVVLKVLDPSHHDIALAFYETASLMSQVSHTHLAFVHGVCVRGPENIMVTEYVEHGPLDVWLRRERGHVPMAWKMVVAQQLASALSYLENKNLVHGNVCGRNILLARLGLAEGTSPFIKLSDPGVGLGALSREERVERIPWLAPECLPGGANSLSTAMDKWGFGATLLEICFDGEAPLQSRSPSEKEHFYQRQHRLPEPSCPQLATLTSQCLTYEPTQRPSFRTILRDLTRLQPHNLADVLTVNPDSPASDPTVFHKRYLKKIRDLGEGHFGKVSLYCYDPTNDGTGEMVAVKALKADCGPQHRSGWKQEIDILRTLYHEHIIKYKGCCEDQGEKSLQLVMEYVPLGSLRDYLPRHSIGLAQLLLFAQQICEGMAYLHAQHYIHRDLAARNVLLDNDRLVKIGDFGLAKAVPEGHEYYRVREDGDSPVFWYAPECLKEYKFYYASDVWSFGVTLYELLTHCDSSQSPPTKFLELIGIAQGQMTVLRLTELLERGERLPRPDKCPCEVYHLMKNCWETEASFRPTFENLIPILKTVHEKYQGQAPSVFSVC
JH2 domain of human Tyk2, sequence (P29597 575-876): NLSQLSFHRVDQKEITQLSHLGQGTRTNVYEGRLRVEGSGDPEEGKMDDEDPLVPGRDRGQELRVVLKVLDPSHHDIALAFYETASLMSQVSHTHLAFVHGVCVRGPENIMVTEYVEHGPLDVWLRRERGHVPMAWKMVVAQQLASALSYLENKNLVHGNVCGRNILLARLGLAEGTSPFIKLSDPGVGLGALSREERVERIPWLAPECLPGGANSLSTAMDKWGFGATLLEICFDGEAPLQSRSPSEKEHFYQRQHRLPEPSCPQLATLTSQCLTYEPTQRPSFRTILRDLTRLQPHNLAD

As a reminder, the IC50 is the concentration needed to halve the response being measured. The low end stands for greater potency, the high end for weaker potency. On to `COCCN(C)Cc1ccc(-c2cnc(NC(C)=O)cc2Nc2ccnc(C(C)(F)F)n2)nc1` [Example 879, N-(4′-((2-(1,1-difluoroethyl)pyrimidin-4-yl)amino)-5-(((2-methoxyethyl)(methyl)amino)methyl)-[2,3′-bipyridin]-6′-yl)acetamide], for which the IC50 in assay [1] (setting [3]) and in assay [2] was not above 10 nM each time.
In the case of `COCCOc1cnc(NC(C)=O)cc1Nc1cc(C)cc(C(C)(F)F)n1` [Example 63, N-(4-((6-(1,1-difluoroethyl)-4-methylpyridin-2-yl)amino)-5-(2-methoxyethoxy)pyridin-2-y1)acetamide], the IC50 in assay [1] (setting [4]) and in assay [2] (MSD) was not above 10 nM throughout.
With `COCCn1cnc(-c2cnc(NC(C)=O)cc2Nc2cc(C)nc(C(C)(F)F)n2)cc1=O` [Example 250, N-(4-((2-(1,1-difluoroethyl)-6-methylpyrimidin-4-yl)amino)-5-(1-(2-methoxyethyl)-6-oxo-1,6-dihydropyrimidin-4-yl)pyridin-2-yl)acetamide], the IC50 in assay [1] (setting [4]) was not above 10 nM; in assay [2] (MSD) it was 100 to 1000 nM.
For `COCCN(C)c1nc(-c2cnc(NC(C)=O)cc2Nc2cc(C)nc(C(C)(F)F)n2)cs1` [Example 772, N-(4-((2-(1,1-difluoroethyl)-6-methylpyrimidin-4-yl)amino)-5-(2-((2-methoxyethyl)(methyl)amino)thiazol-4-yl)pyridin-2-yl)acetamide], the IC50 in assay [1] (setting [3]) and in assay [2] was not above 10 nM throughout.
`CC(=O)Nc1cc(Nc2cc(C)nc(C(C)(F)F)n2)c([C@@H]2CCCO2)cn1` (single isomer, unassigned) [Example 279, (S)—N-(4-((2-(1,1-difluoroethyl)-6-methylpyrimidin-4-yl)amino)-5-(tetrahydrofuran-2-yl)pyridin-2-yl)acetamide or (R)-N-(4-((2-(1,1-difluoroethyl)-6-methylpyrimidin-4-yl)amino)-5-(tetrahydrofuran-2-yl)pyridin-2-yl)acetamide]: the IC50 was in the range of 10 to 100 nM in assay [1] (setting [4]) and 100 to 1000 nM in assay [2] (MSD).
`CC(=O)Nc1cc(Nc2ccnc(C(C)(F)F)n2)c(-c2cncc(OC3COC3)n2)cn1` [Example 690, N-(4-((2-(1,1-difluoroethyl)pyrimidin-4-yl)amino)-5-(6-(oxetan-3-yloxy)pyrazin-2-yl)pyridin-2-yl)acetamide]: the IC50 in assay [1] (setting [5]) and in assay [2] (MSD) was 10 to 100 nM each time.
For `CC(=O)Nc1cc(Nc2cc(C)nc(C(C)(F)F)n2)c(-c2nc(C)cc(C#N)n2)cn1` [Example 657, N-(5-(4-cyanO6-methylpyrimidin-2-yl)-4-((2-(1,1-difluoroethyl)-6-methylpyrimidin-4-yl)amino)pyridin-2-yl)acetamide], the IC50 in assay [1] (setting [5]) lay in the range of 10 to 100 nM; in assay [2] (MSD), 100 to 1000 nM.
`COC1CCN(c2cnc(-c3cnc(NC(C)=O)cc3Nc3ccnc(C(C)(F)F)n3)cn2)C1` (centres unmarked) [Example 867, N-(4-((2-(1,1-difluoroethyl)pyrimidin-4-yl)amino)-5-(5-(3-methoxypyrrolidin-1-yl)pyrazin-2-yl)pyridin-2-yl)acetamide]: the half-maximal inhibitory concentration (IC50) is not above 10 nM in assay [1] (setting [3]) and 10 to 100 nM in assay [2].
Turning to `CC(=O)Nc1cc(Nc2cc(C)nc(C(C)(F)F)n2)c(OCc2nc(C)ns2)cn1` [Example 343, N-(4-((2-(1,1-difluoroethyl)-6-methylpyrimidin-4-yl)amino)-5-((3-methyl-1,2,4-thiadiazol-5-yl)methoxy)pyridin-2-yl)acetamide], the IC50 in assay [1] (setting [4]) is not above 10 nM; in assay [2] (MSD) it was 10 to 100 nM.
Take `CC(=O)Nc1cc(Nc2cc(C)nc(C(C)(F)F)n2)c(OC[C@@H]2CCN(C3CC3)C2)cn1` [Example 494, (R)-N-(5-((1-cyclopropylpyrrolidin-3-yl)methoxy)-4-((2-(1,1-difluoroethyl)-6-methylpyrimidin-4-yl)amino)pyridin-2-yl)acetamide]: the values for the IC50 in assay [1] (setting [5]) and in assay [2] (MSD) were not above 10 nM and 10 to 100 nM, respectively.
With `COCc1cnc(NC(C)=O)cc1Nc1cc(C)nc(C(C)(F)F)n1` [Example 47, N-(4-((2-(1,1-difluoroethyl)-6-methylpyrimidin-4-yl)amino)-5-(methoxymethyl)pyridin-2-yl)acetamide], the concentration for half-maximal inhibition (IC50) in assay [1] (setting [4]) was 10 to 100 nM; in assay [2] (MSD) it was not below 1000 nM.
In the case of `CC(=O)Nc1cc(Nc2cc(C)nc(C(C)(F)F)n2)c(OCc2ccc(C#N)o2)cn1` [Example 333, N-(5-((5-cyanofuran-2-yl)methoxy)-4-((2-(1,1-difluoroethyl)-6-methylpyrimidin-4-yl)amino)pyridin-2-yl)acetamide], the IC50 in assay [1] (setting [4]) was not above 10 nM; in assay [2] (MSD), 10 to 100 nM.
Consider `CC(=O)Nc1cc(Nc2cc(C)nc(C(C)(F)F)n2)c(-c2cc(CN3CCCC3)ccn2)cn1` [Example 805, N-(4′-((2-(1,1-difluoroethyl)-6-methylpyrimidin-4-yl)amino)-4-(pyrrolidin-1-ylmethyl)-[2,3′-bipyridin]-6′-yl)acetamide], for which the figures for the IC50 in assay [1] (setting [3]) and in assay [2] were not above 10 nM and 10 to 100 nM, respectively.
In the case of `COc1ccc(-c2cc(Nc3cc(NC(C)=O)ncc3OC)nc(C(C)(F)F)n2)cn1` [Example 391, N-(4-((2-(1,1-difluoroethyl)-6-(6-methoxypyridin-3-yl)pyrimidin-4-yl)amino)-5-methoxypyridin-2-yl)acetamide], the figures for the IC50 in assay [1] (setting [5]) and in assay [2] (MSD) were not above 10 nM and 10 to 100 nM, respectively.
On to `CC(=O)Nc1cc(Nc2cc(C)nc(C(C)(F)F)n2)c(-c2cccc(F)n2)cn1` [Example 623, N-(4′-((2-(1,1-difluoroethyl)-6-methylpyrimidin-4-yl)amino)-6-fluorO[2,3′-bipyridin]-6′-yl)acetamide], for which the IC50 in assay [1] (setting [5]) and in assay [2] (MSD) was not above 10 nM throughout.
As to `CC(=O)Nc1cc(Nc2cc(C)nc(C(C)(F)F)n2)c(OCCC2CCCN2C)cn1` (centres unmarked) [Example 501, N-(4-((2-(1,1-difluoroethyl)-6-methylpyrimidin-4-yl)amino)-5-(2-(1-methylpyrrolidin-2-yl)ethoxy)pyridin-2-yl)acetamide], the results for the IC50 in assay [1] (setting [5]) and in assay [2] (MSD) were not above 10 nM and 100 to 1000 nM, respectively.
Take `CC(=O)Nc1cc(Nc2cc(C)nc(C(C)(F)F)n2)c(OCc2scnc2C)cn1` [Example 334, N-(4-((2-(1,1-difluoroethyl)-6-methylpyrimidin-4-yl)amino)-5-((4-methylthiazol-5-yl)methoxy)pyridin-2-yl)acetamide]: the IC50 in assay [1] (setting [4]) is 10 to 100 nM; in assay [2] (MSD), 100 to 1000 nM.
The corresponding values for `CC(=O)Nc1cc(Nc2cccc(C(C)(F)F)n2)c(-c2ccc(=O)n(C)n2)cn1` [Example 158, N-(4-((6-(1,1-difluoroethyl)pyridin-2-yl)amino)-5-(1-methyl-6-oxo-1,6-dihydropyridazin-3-yl)pyridin-2-yl)acetamide] are not above 10 nM and not above 10 nM.
As for `CCC(COc1cnc(NC(C)=O)cc1Nc1cc(C)nc(C(C)(F)F)n1)OC` (centres unmarked) [Example 424, N-(4-((2-(1,1-difluoroethyl)-6-methylpyrimidin-4-yl)amino)-5-(2-methoxybutoxy)pyridin-2-yl)acetamide], the IC50 was not above 10 nM in assay [1] (setting [5]) and 10 to 100 nM in assay [2] (MSD).
In the case of `CC(=O)Nc1cc(Nc2nccc(C(C)(F)F)n2)c(-c2ccn(C)n2)cn1` [Example 203, N-(4-((4-(1,1-difluoroethyl)pyrimidin-2-yl)amino)-5-(1-methyl-1H-pyrazol-3-yl)pyridin-2-yl)acetamide], the IC50 in assay [1] (setting [4]) and in assay [2] (MSD) was not above 10 nM each time.
On to `CC(=O)Nc1cc(Nc2ccnc(C(C)(F)F)n2)c(-c2cnc(N(C)C)cn2)cn1` [Example 842, N-(4-((2-(1,1-difluoroethyl)pyrimidin-4-yl)amino)-5-(5-(dimethylamino)pyrazin-2-yl)pyridin-2-yl)acetamide], for which the IC50 in assay [1] (setting [3]) was not above 10 nM; in assay [2], 10 to 100 nM.
Turning to `CC(=O)Nc1cc(Nc2ccnc(C(C)(C)F)c2)c(-c2ncc(F)cn2)cn1` [Example 216, N-(4-((2-(2-fluoropropan-2-yl)pyridin-4-yl)amino)-5-(5-fluoropyrimidin-2-yl)pyridin-2-yl)acetamide], the IC50 in assay [1] (setting [4]) was in the range of 10 to 100 nM; in assay [2] (MSD) it was 100 to 1000 nM.
For the compound `CC(=O)Nc1cc(Nc2cc(C)nc(C(C)(F)F)n2)c(-c2nccc(C)n2)cn1` [Example 671, N-(4-((2-(1,1-difluoroethyl)-6-methylpyrimidin-4-yl)amino)-5-(4-methylpyrimidin-2-yl)pyridin-2-yl)acetamide], the figures for the IC50 in assay [1] (setting [5]) and in assay [2] (MSD) were not above 10 nM and 10 to 100 nM, respectively.
For the compound `COc1ccc(-c2cnc(NC(C)=O)cc2Nc2cc(OC3CC3)nc(C(C)(F)F)n2)nn1` [Example 833, N-(4-((6-cyclopropoxy-2-(1,1-difluoroethyl)pyrimidin-4-yl)amino)-5-(6-methoxypyridazin-3-yl)pyridin-2-yl)acetamide], the IC50 in assay [1] (setting [3]) and in assay [2] was not above 10 nM in each case.
With `COCCN(C)c1nnc(-c2cnc(NC(C)=O)cc2Nc2ccnc(C(C)(F)F)n2)s1` [Example 773, N-(4-((2-(1,1-difluoroethyl)pyrimidin-4-yl)amino)-5-(5-((2-methoxyethyl)(methyl)amino)-1,3,4-thiadiazol-2-yl)pyridin-2-yl)acetamide], the IC50 in assay [1] (setting [3]) and in assay [2] was not above 10 nM throughout.
Consider `COc1cnnc(-c2cnc(NC(C)=O)cc2Nc2cc(C)nc(C(C)(F)F)n2)c1` [Example 753, N-(4-((2-(1,1-difluoroethyl)-6-methylpyrimidin-4-yl)amino)-5-(5-methoxypyridazin-3-yl)pyridin-2-yl)acetamide], for which the IC50 in assay [1] (setting [3]) was not above 10 nM; in assay [2] it was not below 1000 nM.
As for `CC(=O)Nc1cc(Nc2cc(C)nc(C(C)(F)F)n2)c(-c2cc3n(n2)CCCN3C)cn1` [Example 240, N-(4-((2-(1,1-difluoroethyl)-6-methylpyrimidin-4-yl)amino)-5-(4-methyl-4,5,6,7-tetrahydropyrazolo[1,5-a]pyrimidin-2-yl)pyridin-2-yl)acetamide], the IC50 in assay [1] (setting [4]) and in assay [2] (MSD) was not above 10 nM in each case.
`COc1ccc(-c2cc(Nc3cc(NC(C)=O)ncc3OC)nc(C(C)(F)F)n2)cn1` [Example 392, N-(4-((2-(1,1-difluoroethyl)-6-(6-methoxypyridin-3-yl)pyrimidin-4-yl)amino)-5-methoxypyridin-2-yl)acetamide]: the IC50 in assay [1] (setting [5]) and in assay [2] (MSD) was not above 10 nM each time.

Values taken from patent publication US20260028365A1 (BIOGEN MA INC., priority 2022, published 2026).
